The values that follow come from paper PMC10673511, “Design, Synthesis and Bioactivity Evaluation of Heterocycle-Containing Mono- and Bisphosphonic Acid Compounds” (Molecules, 2023).

The EC50 is the concentration giving half of the maximal effect. One may read the melting point as the temperature, or range, at which the solid turns liquid.

One data set relates to Brassica napus L. The data set can be described thus: Pre-emergence herbicidal inhibition assay, Petri dish test, BN. It is filed as in vivo. To be noted: for EC50: Brassica napus, 168 h, 7 days; for Relative activity ratio (BN root) / Relative activity ratio (BN stalk): relative to FOS. The protocol: (§1) The pre-emergence activity of the compounds against monocot Echinochloa crus-galli (EC) and dicot Brassica napus L. (BN) was evaluated using the standard Petri dish test. The compounds were dissolved in DMF, emulsified with Tween-80 and diluted with water to form stock solutions, each of which was further diluted to a gradient of 100, 50, 25, 10 and 1 mg/L for test. The test solutions were added to Petri dishes lined with a filter paper, on which 10 seeds of EC and BN were placed. After cultured in an intelligent climate chamber with a humidity of 65% at 26 °C for 7 days, the corresponding EC50 values were calculated.

The test system of a further data set is Echinochloa crus-galli. The data set can be described thus: Pre-emergence herbicidal inhibition assay, Petri dish test, EC. It is filed as in vivo. To be noted: for EC50: Echinochloa crus-galli, 168 h, 7 days; for Relative activity ratio (EC root) / Relative activity ratio (EC stalk): relative to FOS. The protocol: as §1
In another data set the test system is Arabidopsis thaliana. The data set can be described thus: Arabidopsis growth inhibition assay (24-well plates, green channel pixel value). To be noted: Arabidopsis thaliana, 240 h; for EC50: read-out: EC50 against Arabidopsis growth; for pest or weed control at 100 µg/mL: read-out: InR (%) against Arabidopsis.
In data set [1] the target is recombinant E. coli DXR (EcDXR) (Escherichia coli, UniProt P45568). The data set can be described thus: biochemical. To be noted: read-out: InR (%) on DXR enzyme.
Chain of recombinant E. coli DXR (EcDXR) (P45568 whole entry): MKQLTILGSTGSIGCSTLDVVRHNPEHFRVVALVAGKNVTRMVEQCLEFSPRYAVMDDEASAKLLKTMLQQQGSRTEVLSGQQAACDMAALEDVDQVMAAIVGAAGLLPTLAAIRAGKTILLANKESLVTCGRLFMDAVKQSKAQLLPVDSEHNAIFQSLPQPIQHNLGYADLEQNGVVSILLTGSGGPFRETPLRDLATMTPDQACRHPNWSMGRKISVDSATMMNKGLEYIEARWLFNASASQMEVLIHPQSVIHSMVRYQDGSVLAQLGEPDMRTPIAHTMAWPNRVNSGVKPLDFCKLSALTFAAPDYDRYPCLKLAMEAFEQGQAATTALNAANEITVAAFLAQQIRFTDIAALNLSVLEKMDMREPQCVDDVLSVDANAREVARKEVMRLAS

Molecules are shown by their SMILES. In brackets after ≈: the same amount, converted by molar mass. Where two headings read alike, the source gives them in different places.

`CCc1n[nH]c(CC)c1CC(P(=O)(O)O)P(=O)(O)O` [Compound 12h] yielded a melting point greater than 250 °C. Moreover, the EC50 in the data set on Brassica napus L. (root, read-out: EC50 BN Root) stood at 40.1 µg/mL (≈ 128 µM). Moreover, the EC50 with Brassica napus L. (stalk, read-out: EC50 BN Stalk) worked out at 22.3 µg/mL (≈ 71.4 µM). The EC50 in the data set with Echinochloa crus-galli (root, read-out: EC50 EC Root) is 44.2 µg/mL (≈ 142 µM). Further, in the data set with Echinochloa crus-galli (stalk, read-out: EC50 EC Stalk), the 50% effective concentration (EC50) was determined as 31.1 µg/mL (≈ 99.6 µM). Besides, in the data set on Arabidopsis thaliana, the EC50 was greater than 100 µg/mL and the pest or weed control at 100 µg/mL was 41.2%. The inhibition at 100 µM in data set [1] came out at 2.3%.

`CCc1noc(CC)c1CCP(=O)(O)O` [Compound 6f] yielded a melting point greater than 250 °C. In addition, the EC50 with Brassica napus L. (root, read-out: EC50 BN Root) is greater than 100 µg/mL. For the same compound, in the data set on Brassica napus L. (stalk, read-out: EC50 BN Stalk), the EC50 is greater than 100 µg/mL. Also, the EC50 in the data set with Echinochloa crus-galli (root, read-out: EC50 EC Root) was greater than 100 µg/mL. The EC50 in the data set on Echinochloa crus-galli (stalk, read-out: EC50 EC Stalk) came to 41.7 µg/mL (≈ 179 µM). Moreover, in the data set with Arabidopsis thaliana, the EC50 is greater than 100 µg/mL and the pest or weed control at 100 µg/mL was 13.4%. Also, the inhibition at 100 µM in data set [1] came to 11.7%.

`CC(C)c1n[nH]c(O)c1CCP(=O)(O)O` [Compound 5d] displayed a melting point of 210 to 211 °C. In addition, the EC50 with Brassica napus L. (root, read-out: EC50 BN Root) is greater than 100 µg/mL. For the same compound, the EC50 in the data set with Brassica napus L. (stalk, read-out: EC50 BN Stalk) is 96.9 µg/mL (≈ 414 µM). Besides, the EC50 in the data set on Echinochloa crus-galli (root, read-out: EC50 EC Root) was found to be 32.1 µg/mL (≈ 137 µM). In the data set with Echinochloa crus-galli (stalk, read-out: EC50 EC Stalk), the EC50 was greater than 100 µg/mL. Moreover, in the data set with Arabidopsis thaliana, the EC50 was greater than 100 µg/mL and the pest or weed control at 100 µg/mL worked out at 48.3%. Besides, the inhibition at 100 µM in data set [1] is 17.7%.

`Cc1n[nH]c(C)c1CC(P(=O)(O)O)P(=O)(O)O` [Compound 12g] had a melting point greater than 250 °C. Further, the EC50 in the data set with Brassica napus L. (root, read-out: EC50 BN Root) was greater than 100 µg/mL. In the data set with Brassica napus L. (stalk, read-out: EC50 BN Stalk), the EC50 amounted to 32.9 µg/mL (≈ 116 µM). Further, in the data set on Echinochloa crus-galli (root, read-out: EC50 EC Root), the EC50 worked out at 38.8 µg/mL (≈ 137 µM). For the same compound, in the data set with Echinochloa crus-galli (stalk, read-out: EC50 EC Stalk), the EC50 came to 31.4 µg/mL (≈ 111 µM). Also, in the data set on Arabidopsis thaliana, the EC50 is greater than 100 µg/mL and the pest or weed control at 100 µg/mL amounted to 40.4%. The inhibition at 100 µM in data set [1] stood at 11.6%.

The compound `CCCc1n[nH]c(O)c1CCP(=O)(O)O` [Compound 5c] showed a melting point of 228 to 229 °C. In addition, the EC50 in the data set on Brassica napus L. (root, read-out: EC50 BN Root) was greater than 100 µg/mL. Also, the EC50 with Brassica napus L. (stalk, read-out: EC50 BN Stalk) was 48.2 µg/mL (≈ 206 µM). Further, the EC50 in the data set with Echinochloa crus-galli (root, read-out: EC50 EC Root) came out at 76.3 µg/mL (≈ 326 µM). Moreover, in the data set on Echinochloa crus-galli (stalk, read-out: EC50 EC Stalk), the EC50 stood at 10.6 µg/mL (≈ 45.3 µM). For the same compound, in the data set on Arabidopsis thaliana, the EC50 is greater than 100 µg/mL and the pest or weed control at 100 µg/mL was found to be 43.6%. Further, the inhibition at 100 µM in data set [1] was determined as 6.1%.

With `CCc1noc(CC)c1CC(P(=O)(O)O)P(=O)(O)O` [Compound 13h], the melting point was greater than 250 °C. Further, in the data set with Brassica napus L. (root, read-out: EC50 BN Root), the EC50 is 39.2 µg/mL (≈ 125 µM). Further, in the data set on Brassica napus L. (stalk, read-out: EC50 BN Stalk), the concentration giving a half-maximal response (EC50) is 50.8 µg/mL (≈ 162 µM). For the same compound, the EC50 in the data set with Echinochloa crus-galli (root, read-out: EC50 EC Root) is 48 µg/mL (≈ 153 µM). In the data set with Echinochloa crus-galli (stalk, read-out: EC50 EC Stalk), the EC50 was 45.7 µg/mL (≈ 146 µM). Besides, in the data set on Arabidopsis thaliana, the EC50 was greater than 100 µg/mL and the pest or weed control at 100 µg/mL is 43.2%. The inhibition at 100 µM in data set [1] is 10.3%.

For the compound `CC(C)c1onc(O)c1CCP(=O)(O)O` [Compound 6d], the EC50 turned out to be 67.5 µg/mL (≈ 287 µM) in the data set on Brassica napus L. (root, read-out: EC50 BN Root); 38.2 µg/mL (≈ 162 µM) in the data set with Brassica napus L. (stalk, read-out: EC50 BN Stalk); 40.1 µg/mL (≈ 171 µM) in the data set on Echinochloa crus-galli (root, read-out: EC50 EC Root); 25.7 µg/mL (≈ 109 µM) in the data set on Echinochloa crus-galli (stalk, read-out: EC50 EC Stalk); 45.7 ± 4.8 µg/mL (≈ 194 µM) with Arabidopsis thaliana. Also, the “Relative activity ratio (BN root)” value in the data set on Brassica napus L. was 0.5 fold. Further, the “Relative activity ratio (BN stalk)” value in the data set with Brassica napus L. stood at 0.9 fold. For the same compound, the “Relative activity ratio (EC root)” value in the data set on Echinochloa crus-galli is recorded as 1.0 fold. The “Relative activity ratio (EC stalk)” value with Echinochloa crus-galli is listed as 1.5 fold. Also, the pest or weed control at 100 µg/mL in the data set with Arabidopsis thaliana came out at 100%. Moreover, the inhibition at 100 µM in data set [1] was determined as 17.3%.

Consider `CCCc1onc(O)c1CC(P(=O)(O)O)P(=O)(O)O` [Compound 13c], for which the EC50 with Brassica napus L. (root, read-out: EC50 BN Root) is 27.7 µg/mL (≈ 87.9 µM); in the data set on Brassica napus L. (stalk, read-out: EC50 BN Stalk), 46.9 µg/mL (≈ 149 µM); in the data set with Echinochloa crus-galli (root, read-out: EC50 EC Root), 43.9 µg/mL (≈ 139 µM); in the data set on Echinochloa crus-galli (stalk, read-out: EC50 EC Stalk) it was 45.8 µg/mL (≈ 145 µM); in the data set on Arabidopsis thaliana, 48.4 ± 5.3 µg/mL (≈ 154 µM). In addition, the “Relative activity ratio (BN root)” value in the data set with Brassica napus L. was found to be 1.3 fold. Besides, the “Relative activity ratio (BN stalk)” value in the data set with Brassica napus L. worked out at 0.7 fold. The “Relative activity ratio (EC root)” value in the data set with Echinochloa crus-galli is on record as 0.9 fold. Besides, the “Relative activity ratio (EC stalk)” value in the data set on Echinochloa crus-galli was determined as 0.8 fold. The pest or weed control at 100 µg/mL in the data set on Arabidopsis thaliana came to 100%. Moreover, the inhibition at 100 µM in data set [1] turned out to be 28.4%.

As for `CCc1onc(O)c1CC(P(=O)(O)O)P(=O)(O)O` [Compound 13b], the EC50 in the data set on Brassica napus L. (root, read-out: EC50 BN Root) was determined as 38.8 µg/mL (≈ 129 µM); in the data set on Brassica napus L. (stalk, read-out: EC50 BN Stalk), 20.2 µg/mL (≈ 67.1 µM); in the data set with Echinochloa crus-galli (root, read-out: EC50 EC Root), 29.9 µg/mL (≈ 99.3 µM); with Echinochloa crus-galli (stalk, read-out: EC50 EC Stalk), 35.3 µg/mL (≈ 117 µM); with Arabidopsis thaliana, 37.7 ± 2.8 µg/mL (≈ 125 µM). Also, the “Relative activity ratio (BN root)” value in the data set with Brassica napus L. was determined as 0.9 fold. In the data set with Brassica napus L., the “Relative activity ratio (BN stalk)” value was 1.6 fold. Further, in the data set with Echinochloa crus-galli, the “Relative activity ratio (EC root)” value came out at 1.3 fold. In addition, in the data set with Echinochloa crus-galli, the “Relative activity ratio (EC stalk)” value stood at 1.1 fold. The pest or weed control at 100 µg/mL with Arabidopsis thaliana was 100%. In addition, the inhibition at 100 µM in data set [1] was 27.4%.

With `CCCc1onc(O)c1CCP(=O)(O)O` [Compound 6c], the EC50 in the data set with Brassica napus L. (root, read-out: EC50 BN Root) was 99.7 µg/mL (≈ 424 µM); in the data set on Brassica napus L. (stalk, read-out: EC50 BN Stalk), 33.7 µg/mL (≈ 143 µM); in the data set with Echinochloa crus-galli (root, read-out: EC50 EC Root), 65.4 µg/mL (≈ 278 µM); in the data set on Echinochloa crus-galli (stalk, read-out: EC50 EC Stalk), 41.1 µg/mL (≈ 175 µM); with Arabidopsis thaliana, greater than 100 µg/mL. Moreover, the pest or weed control at 100 µg/mL in the data set with Arabidopsis thaliana was determined as 42%. Further, the inhibition at 100 µM in data set [1] was 7.5%.
